In data set [1] the test system is Lactococcus lactis. The conditions noted are these: cited from earlier work.
The subject of data set [2] is S. cerevisiae CBS 8066. The experiment in a line: Small-scale batch cultivation testing the effect of acetaldehyde on formation of ethanol and glycerol. Format: cell-based, Saccharomyces cerevisiae. The note with it: 1.76 mM acetaldehyde in, single addition at start; 280 mM glucose at start; 90 minutes of incubation. Here is the method:
(§1) The column was eluted at 60° C. with 0.5 g/l H2S04 at a flow rate of 0.6 ml min^−1 . Detection was by means of a Waters 2410 refractive-index detector and a Waters 2487 UV detector. Initial and final glycerol concentrations were further determined using an enzymatic determination kit (Rbiopharm AG, Darmstadt, Germany).
Carbon dioxide was allowed to escape from the bottles by inserting a needle in the septum of the cap. The bottles were incubated stationary. A sample per bottle was taken at the start of the experiment and after 90 minutes of incubation.
The initial cell concentration was 0.45 g/l dry biomass. Acetaldehyde was supplied to the bottle in a single addition at the start of the incubation. In a separate control run, no acetaldehyde was supplied.

The subject of data set [3] is S. cerevisiae CBS 8066. The data set can be described thus: Anoxic chemostat fermentation under glucose limitation in absence or presence of acetaldehyde. Format: cell-based, Saccharomyces cerevisiae. The conditions noted are these: for Δ ethanol produced / Δ glycerol produced: relative to steady state 1 without acetaldehyde; for acetaldehyde concentration in chemostat sample / acetic acid concentration in chemostat sample / ethanol concentration in chemostat sample / glucose concentration in chemostat sample / glycerol concentration in chemostat sample / pyruvic acid concentration in chemostat sample / succinic acid concentration in chemostat sample: dilution rate 0.11 h^−1, duplicate samples A and B. Here is the method:
as §1
The mineral salts medium employed was based on standard media (Bruinenberg et al. 1983. Journal of General Microbiology 129:965-971; Verduin et al 1990. Journal of General Microbiology 136:395-403). It contained the following per liter of demineralized water: (NH4)2SO4, 5 g; KH2PO4, 3 g; MgSO4.7H2O, 0.5 g; EDTA, 15 mg; ZnSO4.7H20, 4.5 mg; CoCl2 6H2O, 0.3 mg; MnCl2 4H20, 1 mg; CuSO4 5H20, 0.3 mg; CaCl2. 2H20, 4.5 mg; FeSO4 7H20, 3 mg; Na2MoO4. 2H2O, 0.4 mg; H3BO3, 1 mg; KI, 0.1 mg; and 0.025 ml silicone antifoam (BDH). After heat sterilization at 120° C. and cooling, filter sterilized vitamins were added: biotin, 0.05 mg; calcium pantothenate, 1 mg; nicotinic acid, 1 mg; inositol, 25 mg; thiamin.HCl, 1 mg; pyridoxine.HCl, 1 mg; and para-aminobenzoic acid, 0.2 mg. Ergosterol and Tween 80 were dissolved in pure ethanol and steamed at 100° C. for 10 minutes before they were added to the medium to give final concentrations of 10 and 400 mg/l, respectively, and a final concentration of 38 mM ethanol. […] The sterilized glucose solution was added to the sterile mineral salts medium to give the required final concentration.
Anoxic chemostat cultivation of the yeasts was done at 30° C. in a fermenter with a working volume of 1 liter and at a stirring speed of 600 r.p.m. The pH was automatically controlled at pH=5 by titration with 2 M KOH. The condenser at the outlet of the gas stream was connected to a cryostat and cooled at 2° C. The condensate was returned into the fermentation vessel. The tubing on the entire fermenter set-up (including medium- and waste-reservoirs) consisted of material (Norprene tubing) that is very poorly permeable for oxygen. The fermenter and the medium reservoir (with a magnetic stirrer) were sparged with certificated ultra-pure nitrogen prior to the addition of acetaldehyde to the reservoir.
Strain S. cerevisiae CBS 8066 was cultivated in chemostat culture at a dilution rate of 0.11 h^−1. The glucose concentration in the medium reservoir was […] in each run. Three separate steady states were obtained in either the absence or presence of acetaldehyde. The effect of the aldehyde on the fermentation was tested by adding the compound to the medium reservoir after a steady state situation in its absence (medium and samples “1”) had been established. […] In each of the three steady states (after 3-5 volume changes), the fermentation medium in the fermenter was analyzed for various compounds as summarized in Tables 1 and 2.

For data set [4] the following is noted: kH=Ca/Pg, concentration in water over partial pressure in the gas phase; cited from earlier work.
In data set [5] the test system is Ethanol Red strain. The experiment in a line: Batch fermentation testing acetaldehyde additions at high ethanol concentrations. The data set is classed as cell-based. The note with it: acetaldehyde added once ethanol had reached 80 g/l, controlled between 0.06 and 0.1 g/l; 180 minutes without acetaldehyde. The protocol: The stirring speed was set at 300 r.p.m. and the pH of the mineral salts medium containing 280 g/l glucose was kept at 5 by adding 2 M NaOH. The condenser at the outlet of the gas stream was connected to a cryostat and cooled at 2° C. The condensate was returned into the fermentation vessel. […] Sampling was from a loop kept at 35° C. for circulating gas from the headspace. […] The solution entered in the aqueous phase via a needle at the outlet of the tubing.
The mineral salts medium was employed with the addition of yeast extract at 1 g/l. The initial cell concentration was 0.5 g/l dry biomass. Air was supplied to the headspace of the fermenter at 15 ml/min during the first 2 hours of cultivation after which conditions were kept anoxic. Glucose was added initially at 230 g/l. […] The concentration was monitored from the headspace and controlled in the fermenter liquid between 0.06 and 0.1 g/l. In a control experiment, no acetaldehyde was supplied.

The subject of data set [6] is S. cerevisiae CEN.PK2-1C. The experiment in a line: Evolutionary engineering for enhanced tolerance to acetaldehyde (oxic batch cultivation). The data set is classed as cell-based, Saccharomyces cerevisiae. The note with it: batch system; compared to the parent strain in the absence of acetaldehyde. The protocol:
The flasks contained 20 ml mineral salts medium supplied with glucose (12 g/l) and they were incubated on a rotary shaker at 400 r.p.m. Air could enter in the flasks via cotton plugs.
The organisms were cultivated under oxic conditions in a batch-wise mode. The initial pH of the mineral salts medium was set at 6 by titrating with KOH and glucose was added at 12 g/l. […] The newly acquired strains retained their ability to withstand higher acetaldehyde levels also when cultivating them anoxically in mineral salts medium with glucose and for prolonged periods of times. This subculturing was by taking an aliquot of 0.5 ml from a culture that had consumed all glucose and by transferring this inoculum to fresh medium (50 ml).

The test system of data set [7] is lactic acid bacteria, belonging to Lactobacillus, Pediococcus, Leuconostoc and Weissella. The experiment in a line: Semi-anoxic co-culture of yeast with lactic acid bacteria at increasing acetaldehyde concentrations. Format: cell-based. The conditions noted are these: increasing concentrations of acetaldehyde in subsequent batches; without acetaldehyde the bacteria remained present. Here is the method: Media for plates (1.5% agar) for S. cerevisiae were the mineral salts medium supplement with 2% glucose and for lactic acid bacteria the de Man, Rogosa and Sharpe (MRS) medium. Cycloheximide (0.1 g/l) was added to the plates in case mixed cultures of yeast and lactic acid bacteria were studied.
Semi-anoxic batch cultivation of the yeasts together with lactic acid bacteria was done at 30° C. in 100-ml Erlenmeyer flasks. The flasks contained 50 ml mineral salts medium supplied with glucose (12 g/l) and they were incubated without shaking. Air could enter in the flasks via cotton plugs.
S. cerevisiae CEN.PK2-1C was subjected to evolutionary engineering analogous to the procedure described above, except that now semi-anoxic conditions were employed. Eight strains of lactic acid bacteria, belonging to Lactobacillus, Pediococcus, Leuconostoc and Weissella, were inoculated as well. The dynamics of the quantitative growth of the 9 organisms thus present as co-culture was followed during the procedure of evolutionary engineering. During each successive transfer step, the suspension after growth was plated on media that allow growth of either S. cerevisiae or of the 8 strains of lactic acid bacteria. […] Under this circumstance, the lactic acid bacteria remained present in the system.

Setting [8] is: Steady state 2 (6 mM acetaldehyde supplied).
The mark [9] stands for this setting: Steady state 3 (15 mM acetaldehyde supplied).
The mark [10] stands for this setting: steady state 2, 6 mM acetaldehyde supplied.
Where [11] appears, read: steady state 3, 15 mM acetaldehyde supplied.

Values joined by “and” are separate entries in the source; they are usually repeats but may differ in a detail not shown here. Equal values may be shown once.

As to `CC=O` [acetaldehyde], in data set [1], the “concentration resulting in a reduction of the growth rate by 50%” value is 0.4 kg/m^3; the “minimum inhibitory concentration (MIC)” value was 35 mM and 1.5 kg/m^3. Also, the IC50 in data set [1] (read-out: concentration resulting in a reduction of the growth rate by 50%) is 9 mM. In addition, in data set [2], the Acetaldehyde at end was 1.01 mM, the Ethanol at end is on record as 6.67 mM and the Glycerol at end came to 0.58 mM. Also, in data set [3] (setting [8]), the acetaldehyde consumed was -6 mM, the glucose consumed is listed as 136 mM, the Δ ethanol produced worked out at 15 mM and the Δ glycerol produced was -6 mM. In data set [3] (setting [9]), the acetaldehyde consumed is -16 mM, the glucose consumed turned out to be 136 mM, the Δ ethanol produced came to 27 mM and the Δ glycerol produced was -11 mM. In addition, in data set [3] (setting [10]), the “acetaldehyde concentration in chemostat sample” value was found to be 0.03 mM; the “acetic acid concentration in chemostat sample” value was 0.64 mM and 0.54 mM; the “ethanol concentration in chemostat sample” value was 243.13 mM and 244.74 mM; the “glucose concentration in chemostat sample” value is 0.48 mM and 0.46 mM. In data set [3] (setting [10]), the “glycerol concentration in chemostat sample” value is 9.47 mM and 9.60 mM; the “pyruvic acid concentration in chemostat sample” value is 0.56 mM and 0.51 mM; the “succinic acid concentration in chemostat sample” value is 0.43 mM and 0.45 mM. In data set [3] (setting [11]), the “acetaldehyde concentration in chemostat sample” value was found to be 0.04 mM; the “acetic acid concentration in chemostat sample” value is 0.78 mM and 0.69 mM; the “ethanol concentration in chemostat sample” value is 255.35 mM and 255.25 mM; the “glucose concentration in chemostat sample” value was 0.44 mM and 0.48 mM. In addition, in data set [3] (setting [11]), the “glycerol concentration in chemostat sample” value is 4.04 mM and 4.02 mM; the “pyruvic acid concentration in chemostat sample” value was 0.48 mM; the “succinic acid concentration in chemostat sample” value was 0.45 mM and 0.50 mM. For the same compound, the “Henry's law constant kH” value in data set [4] is given as 15 M/atm. The “time required to reach 98 g/l of ethanol in the liquid” value in data set [5] came out at 158 min. Also, in data set [6], the “acetaldehyde concentration in whose presence the evolved strain grew without a noticeable change in growth rate” value was found to be 0.5 g/L. Also, the “fate of the lactic acid bacteria in the co-culture” value in data set [7] is reported as “disappeared”.

With `CCO` [ethanol], in data set [4], the “Henry's law constant kH” value was “approximately 200 M/atm”.

As for `O=O` [oxygen], the “Henry's law constant kH” value in data set [4] is on record as 1.3*10^−3 M/atm.

These data come from US20180030482A1 (Moralco B.V., priority 2014, published 2018).
